Test results taken from ChEMBL document CHEMBL1146428, “Effects of flavonoids isolated from scutellariae radix on fibrinolytic system induced by trypsin in human umbilical vein endothelial cells” (J Nat Prod, 1997).
Calls of active or inactive are those of the source. The calls are words filed in the database; no cut-off is given here.

Molecular target: T1, Trypsin (Homo sapiens, UniProt P07477+P07478+P35030)
Experiment: Inhibition of trypsin-induced elevation in PAI1 production in HUVEC by ELISA
Type: cell-based

SMILES	IC50 [µM]	Activity
COc1c(O[C@@H]2O[C@H](C(=O)O)[C@@H](O)[C@H](O)[C@H]2O)cc(O)c2c(=O)cc(-c3ccccc3)oc12	> 1000	
O=C1C[C@@H](c2c(O)cccc2O)Oc2cc(O)cc(O)c21	> 1000	
COc1c(O)ccc(O)c1-c1cc(=O)c2c(O)cc(O)c(OC)c2o1	88	
O=c1cc(-c2ccccc2)oc2cc(O)c(O)c(O)c12 [BAICALEIN]	3.7	Dose-dependent effect
O=C(O)[C@H]1O[C@@H](Oc2cc3oc(-c4ccccc4)cc(=O)c3c(O)c2O)[C@H](O)[C@@H](O)[C@@H]1O [BAICALIN]	> 1000	
COc1c(O)cc2oc(-c3ccccc3)cc(=O)c2c1O [OROXYLIN A]	61	
COc1cccc(O)c1-c1cc(=O)c2c(O)c(OC)c(OC)c(OC)c2o1 [SKULLCAPFLAVONE II]	110	
COc1c(O)cc(O)c2c(=O)cc(-c3ccccc3)oc12 [WOGONIN]	105	

Molecular target: T1, Trypsin
Experiment: Inhibition of trypsin-induced reduction in tPA production in HUVEC by ELISA
Type: cell-based

SMILES	Activity
COc1c(O[C@@H]2O[C@H](C(=O)O)[C@@H](O)[C@H](O)[C@H]2O)cc(O)c2c(=O)cc(-c3ccccc3)oc12	inactive
O=C1C[C@@H](c2c(O)cccc2O)Oc2cc(O)cc(O)c21	inactive
COc1c(O)ccc(O)c1-c1cc(=O)c2c(O)cc(O)c(OC)c2o1	inactive
O=c1cc(-c2ccccc2)oc2cc(O)c(O)c(O)c12 [BAICALEIN]	Dose-dependent effect
O=C(O)[C@H]1O[C@@H](Oc2cc3oc(-c4ccccc4)cc(=O)c3c(O)c2O)[C@H](O)[C@@H](O)[C@@H]1O [BAICALIN]	inactive
COc1c(O)cc2oc(-c3ccccc3)cc(=O)c2c1O [OROXYLIN A]	inactive
COc1cccc(O)c1-c1cc(=O)c2c(O)c(OC)c(OC)c(OC)c2o1 [SKULLCAPFLAVONE II]	inactive
COc1c(O)cc(O)c2c(=O)cc(-c3ccccc3)oc12 [WOGONIN]	inactive

System: not listed separately
Experiment: Inhibition of trypsin by protease assay system

SMILES	IC50 [µM]
O=c1cc(-c2ccccc2)oc2cc(O)c(O)c(O)c12 [BAICALEIN]	0.5
